Measurements taken from US9932331B2, “Phenyl tetrahydroisoquinoline compound substituted with heteroaryl” (TAISHO PHARMACEUTICAL CO., LTD, priority 2014, dated 2018).
Structures can show the parent of a compound that is named as a salt.

Experiments:
SD rat = experiment: 32P-phosphate oral loading test using SD rat (phosphorus absorption inhibitory effect); assay type: in vivo; conditions: Rattus norvegicus, 0.5 h; SD male rats, oral dose 3 mg/kg; plasma radioactivity 30 minutes after 32P-phosphate solution, vs control group; read-out: Rate of inhibition of phosphate absorption
Method: Phosphorus Absorption Inhibitory Effect of the Compound of the Present Invention in ^32P-Phosphate Oral Loading Test Using SD Rat
8-week-old SD male rats (Japan SLC, Inc.) were used as laboratory animals. Each test compound was suspended or dissolved at a concentration of 0.2 mg/mL or 0.6 mg/mL in Japanese Pharmacopoeia water for injection (manufactured by Hikari Pharmaceutical Co., Ltd.) and orally administered to each rat at a dose of 5 ml/kg body weight. Japanese Pharmacopoeia water for injection was administered at the same dose as above to a control group. 5 minutes after the administration of the test compound or water for injection, a phosphate solution (1.3 mM NaH2PO4) containing 32P-phosphate (PerkinElmer Inc.) was administered thereto at a dose of 5 ml/kg. 30 minutes after the administration of the phosphate solution, blood was collected from the tail vein, and the blood sample was immediately mixed with EDTA-2K (manufactured by Dojindo Laboratories). Then, the mixture was centrifuged at 3000 rpm at 4° C. for 10 minutes to recover plasma.
The radioactivity in 100 μL of the plasma was measured using a liquid scintillation counter and used as a phosphate absorption count. The radioactivity in the plasma of the control group was used as a control, and the rate of inhibition of phosphate absorption was determined according to the following expression: Rate of inhibition of phosphate absorption (%)=(1−Phosphate absorption count of the test compound administration group/Phosphate absorption count of the control group)×100 (2) Results

human NHE3 = target: T1, human NHE3 (Homo sapiens, UniProt P48764); experiment: NHE3 inhibition test (recovery of intracellular pH in cell line stably expressing human NHE3); assay type: cell-based; conditions: OK cells deficient in endogenous NHE stably expressing human NHE3; BCECF fluorescence, initial rate of pH recovery; read-out: human NHE3 inhibitory activity IC50
T1 sequence (P48764 26-834): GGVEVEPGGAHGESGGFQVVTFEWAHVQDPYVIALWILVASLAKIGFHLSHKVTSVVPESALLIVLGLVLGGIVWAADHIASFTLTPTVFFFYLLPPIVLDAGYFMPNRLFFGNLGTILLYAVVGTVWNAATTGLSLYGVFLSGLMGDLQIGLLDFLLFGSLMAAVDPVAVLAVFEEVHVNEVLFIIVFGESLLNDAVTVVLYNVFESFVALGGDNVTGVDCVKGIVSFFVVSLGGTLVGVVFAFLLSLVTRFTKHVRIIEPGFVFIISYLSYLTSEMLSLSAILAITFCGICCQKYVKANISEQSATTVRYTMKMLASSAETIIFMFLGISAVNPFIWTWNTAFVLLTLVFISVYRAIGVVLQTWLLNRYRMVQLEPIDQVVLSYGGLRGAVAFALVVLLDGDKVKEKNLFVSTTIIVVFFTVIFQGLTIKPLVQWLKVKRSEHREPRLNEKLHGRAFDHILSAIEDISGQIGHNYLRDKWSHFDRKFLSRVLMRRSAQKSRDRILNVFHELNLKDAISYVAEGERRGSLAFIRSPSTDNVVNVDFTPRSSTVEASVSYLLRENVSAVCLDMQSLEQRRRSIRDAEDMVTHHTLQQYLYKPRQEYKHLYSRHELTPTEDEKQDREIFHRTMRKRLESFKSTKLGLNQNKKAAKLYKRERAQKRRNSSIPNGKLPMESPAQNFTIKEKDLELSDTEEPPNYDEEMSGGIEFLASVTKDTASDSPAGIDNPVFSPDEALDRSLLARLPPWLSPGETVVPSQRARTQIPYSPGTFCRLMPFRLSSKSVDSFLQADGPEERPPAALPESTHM
In short: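 IC50 is the concentration halving the initial rate of Na-triggered intracellular pH recovery, tracked by BCECF fluorescence, in NH4Cl-acidified cells. Cells: NHE-deficient OK line stably transfected with human NHE3; compound added in Na-free pH 7.4 buffer.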

SMILES | inhibition in vivo at 3 mg/kg (SD rat) [%] | IC50 (human NHE3) [nM]
CN1Cc2c(Cl)cc(Cl)cc2[C@H](c2cccc(-c3cn(CCOCCOCCNC(=O)Nc4ccc(NC(=O)NCCOCCOCCn5cc(-c6cccc([C@@H]7CN(C)Cc8c(Cl)cc(Cl)cc87)c6)nn5)cc4)nn3)c2)C1 [Example 6-5, 1,1′-Benzene-1,4-diylbis[3-(2-{2-[2-(4-{3-[(4S)-6,8-dichloro-2-methyl-1,2,3,4-tetrahydroisoquinolin-4-yl]phenyl}-1H-1,2,3-triazol-1-yl)ethoxy]ethoxy}ethyl)urea]hydrochloride] | 46 | 9.5
CN1Cc2c(Cl)cc(Cl)cc2[C@H](c2cccc(-c3cn(CCOCCOCCOCCNC(=O)[C@@H](O)[C@H](O)[C@H](O)[C@@H](O)C(=O)NCCOCCOCCOCCn4cc(-c5cccc([C@@H]6CN(C)Cc7c(Cl)cc(Cl)cc76)c5)nn4)nn3)c2)C1 [Example 6-8, (2R,3S,4R,5S)—N,N′-Bis[2-(2-{2-[2-(4-{3-[(4S)-6,8-dichloro-2-methyl-1,2,3,4-tetrahydroisoquinolin-4-yl]phenyl}-1H-1,2,3-triazol-1-yl)ethoxy]ethoxy}ethoxy)ethyl]-2,3,4,5-tetrahydroxyhexanediamide hydrochloride] | 34 | 0.8
CN1Cc2c(Cl)cc(Cl)cc2[C@H](c2cccc(-c3cn(CCOCCOCCOCCOCCNC(=O)[C@H](O)[C@@H](O)C(=O)NCCOCCOCCOCCOCCn4cc(-c5cccc([C@@H]6CN(C)Cc7c(Cl)cc(Cl)cc76)c5)nn4)nn3)c2)C1 [Example 6-9, (2R,3R)—N,N′-Bis[14-(4-{3-[(4S)-6,8-dichloro-2-methyl-1,2,3,4-tetrahydroisoquinolin-4-yl]phenyl}-1H-1,2,3-triazol-1-yl)-3,6,9,12-tetraoxatetradec-1-yl]-2,3-dihydroxybutanediamide hydrochloride] | 53 | 4.1
CN1Cc2c(Cl)cc(Cl)cc2[C@H](c2cccc(-c3cn(CCOCCOCCOCCOCCOCCNC(=O)[C@H](O)[C@@H](O)C(=O)NCCOCCOCCOCCOCCOCCn4cc(-c5cccc([C@@H]6CN(C)Cc7c(Cl)cc(Cl)cc76)c5)nn4)nn3)c2)C1 [Example 6-10, (2R,3R)—N,N′-Bis[17-(4-{3-[(4S)-6,8-dichloro-2-methyl-1,2,3,4-tetrahydroisoquinolin-4-yl]phenyl}-1H-1,2,3-triazol-1-yl)-3,6,9,12,15-pentaoxaheptadec-1-yl]-2,3-dihydroxybutanediamide hydrochloride] | 38 | 6.2
CN1Cc2c(Cl)cc(Cl)cc2[C@H](c2cccc(-c3cn(CCOCCOCCOCCOCCNC(=O)[C@@H](O)[C@H](O)[C@H](O)[C@@H](O)C(=O)NCCOCCOCCOCCOCCn4cc(-c5cccc([C@@H]6CN(C)Cc7c(Cl)cc(Cl)cc76)c5)nn4)nn3)c2)C1 [Example 6-11, (2R,3S,4R,5S)—N,N′-Bis[14-(4-{3-[(4S)-6,8-dichloro-2-methyl-1,2,3,4-tetrahydroisoquinolin-4-yl]phenyl}-1H-1,2,3-triazol-1-yl)-3,6,9,12-tetraoxatetradec-1-yl]-2,3,4,5-tetrahydroxyhexanediamide hydrochloride] | 33 | 1.4
CN1Cc2c(Cl)cc(Cl)cc2[C@@H](c2cccc(-c3cn(CCOCCOCCOCCOCCOCCNC(=O)[C@H](O)[C@@H](O)[C@@H](O)[C@H](O)C(=O)NCCOCCOCCOCCOCCOCCn4cc(-c5cccc([C@@H]6CN(C)Cc7c(Cl)cc(Cl)cc76)c5)nn4)nn3)c2)C1 [Example 6-12, (2R,3S,4R,5S)—N-[17-(4-{3-[(4R)-6,8-Dichloro-2-methyl-1,2,3,4-tetrahydroisoquinolin-4-yl]phenyl}-1H-1,2,3-triazol-1-yl)-3,6,9,12,15-pentaoxaheptadec-1-yl]-N′-[17-(4-{3-[(4S)-6,8-dichloro-2-methyl-1,2,3,4-tetrahydroisoquinolin-4-yl]phenyl}-1H-1,2,3-triazol-1-yl)-3,6,9,12,15-pentaoxaheptadec-1-yl]2,3,4,5-tetrahydroxyhexanediamide hydrochloride] | 37 | 2.3
CN1Cc2c(Cl)cc(Cl)cc2[C@H](c2cccc(-c3cc(NCCOCCOCCNC(=O)NCCCCNC(=O)NCCOCCOCCNc4cc(-c5cccc([C@@H]6CN(C)Cc7c(Cl)cc(Cl)cc76)c5)ncn4)ncn3)c2)C1 [Example 7-2, 1,1′-Butane-1,4-diylbis {3-[2-(2-{2-[(6-{3-[(4S)-6,8-dichloro-2-methyl-1,2,3,4-tetrahydroisoquinolin-4-yl]phenyl}pyrimidin-4-yl)amino]ethoxy}ethoxy)ethyl]urea} tetrahydrochloride] | 23 | 9.4
CN1Cc2c(Cl)cc(Cl)cc2[C@H](c2cccc(-c3ccnc(NCCOCCOCCNC(=O)NCCCCNC(=O)NCCOCCOCCNc4cc(-c5cccc([C@@H]6CN(C)Cc7c(Cl)cc(Cl)cc76)c5)ccn4)c3)c2)C1 [Example 7-4, 1,1′-Butane-1,4-diylbis {3-[2-(2-{2-[(4-{3-[(4S)-6,8-dichloro-2-methyl-1,2,3,4-tetrahydroisoquinolin-4-yl]phenyl}pyridin-2-yl)amino]ethoxy}ethoxy)ethyl]urea}pentahydrochloride] | 27 | 8.4
CN1Cc2c(Cl)cc(Cl)cc2[C@H](c2cccc(-c3cnn(CCOCCOCCNC(=O)NCCCCNC(=O)NCCOCCOCCn4cc(-c5cccc([C@@H]6CN(C)Cc7c(Cl)cc(Cl)cc76)c5)cn4)c3)c2)C1 [Example 7-5, 1,1′-Butane-1,4-diylbis[3-(2-{2-[2-(4-{3-[(4S)-6,8-dichloro-2-methyl-1,2,3,4-tetrahydroisoquinolin-4-yl]phenyl}-1H-pyrazol-1-yl)ethoxy]ethoxy}ethyl)urea]diformate] | 23 | 4.5
CN1Cc2c(Cl)cc(Cl)cc2[C@H](c2cccc(-c3cc(NCCOCCOCCNC(=O)NCCCCNC(=O)NCCOCCOCCNc4cnnc(-c5cccc([C@@H]6CN(C)Cc7c(Cl)cc(Cl)cc76)c5)c4)cnn3)c2)C1 [Example 7-6, 1,1′-Butane-1,4-diylbis {3-[2-(2-{2-[(6-{3-[(4S)-6,8-dichloro-2-methyl-1,2,3,4-tetrahydroisoquinolin-4-yl]phenyl}pyridazin-4-yl)amino]ethoxy}ethoxy)ethyl]urea}pentahydrochloride] | 24 | 10
CN1Cc2c(Cl)cc(Cl)cc2[C@H](c2cccc(-c3nnn(CCOCCOCCNC(=O)NCCCCNC(=O)NCCOCCOCCn4nnc(-c5cccc([C@@H]6CN(C)Cc7c(Cl)cc(Cl)cc76)c5)n4)n3)c2)C1 [Example 7-9, 1,1′-Butane-1,4-diylbis[3-(2-{2-[2-(5-{3-[(4S)-6,8-dichloro-2-methyl-1,2,3,4-tetrahydroisoquinolin-4-yl]phenyl}-2H-tetrazol-2-yl)ethoxy]ethoxy}ethyl)urea]hydrochloride] | 22 | 7.3
CN1Cc2c(Cl)cc(Cl)cc2[C@H](c2cccc(-c3nnn(CCOCCOCCNC(=O)Nc4ccc(NC(=O)NCCOCCOCCn5nnc(-c6cccc([C@@H]7CN(C)Cc8c(Cl)cc(Cl)cc87)c6)n5)cc4)n3)c2)C1 [Example 7-10, 1,1′-Benzene-1,4-diylbis[3-(2-{2-[2-(5-{3-[(4S)-6,8-dichloro-2-methyl-1,2,3,4-tetrahydroisoquinolin-4-yl]phenyl}-2H-tetrazol-2-yl)ethoxy]ethoxy}ethyl)urea]hydrochloride] | 35 | 13.7
